Results from ChEMBL document CHEMBL4818987, “Recent advances of podophyllotoxin/epipodophyllotoxin hybrids in anticancer activity, mode of action, and structure-activity relationship: An update (2010-2020)” (Eur J Med Chem, 2020).

How the values were obtained:
SK-OV-3 [1] = assay: Antiproliferative activity against human SKOV3 cells incubated for 48 hrs by MTT assay; format: functional, cell-based; details: SK-OV-3, 48 h
MGC-803 [2] = assay: Antiproliferative activity against human MGC-803 cells incubated for 48 hrs by MTT assay; format: functional, cell-based; details: MGC-803, 48 h
K562/A02 [3] = assay: Antiproliferative activity against human K562/A02 cells incubated for 48 hrs by MTT assay; format: functional, cell-based; details: K562/A02, 48 h
BGC-823 [4] = assay: Antiproliferative activity against human BGC-823 cells incubated for 48 hrs by MTT assay; format: functional, cell-based; details: BGC-823, 48 h
K562 [5] = assay: Antiproliferative activity against human K562 cells incubated for 72 hrs by CCK8 method; format: functional, cell-based; details: K562, 72 h
K562/Adr [6] = assay: Antiproliferative activity against human K562/ADR cells incubated for 72 hrs by CCK8 method; format: functional, cell-based
K562/VCR [7] = assay: Potency index, ratio of etoposide IC50 to compound IC50 for antiproliferative activity against human K562/VCR cells; format: functional
K562/VCR [8] = assay: Potency index, ratio of vincristine IC50 to compound IC50 for antiproliferative activity against human K562/VCR cells; format: functional
K562/VCR [9] = assay: Antiproliferative activity against human K562/VCR cells incubated for 72 hrs by CCK8 method; format: functional, cell-based
BGC-823 [10] = assay: Potency index, ratio of etoposide IC50 to test compound IC50 for antiproliferative activity against human BGC-823 cells; format: functional
SK-OV-3 [11] = assay: Potency index, ratio of etoposide IC50 to test compound IC50 for antiproliferative activity against human SK-OV-3 cells; format: functional
K562/A02 [12] = assay: Potency index, ratio of etoposide IC50 to test compound IC50 for antiproliferative activity against human K562/A02 cells; format: functional
HepG2 [13] = assay: Potency index, ratio of etoposide IC50 to test compound IC50 for antiproliferative activity against human HepG2 cells; format: functional
MCF7 [14] = assay: Potency index, ratio of etoposide IC50 to test compound IC50 for antiproliferative activity against human MCF7 cells; format: functional
HeLa [15] = assay: Potency index, ratio of etoposide IC50 to test compound IC50 for antiproliferative activity against human HeLa cells; format: functional
K562 [16] = assay: Potency index, ratio of etoposide IC50 to test compound IC50 for antiproliferative activity against human K562 cells; format: functional
MGC-803 [17] = assay: Potency index, ratio of etoposide IC50 to test compound IC50 for antiproliferative activity against human MGC-803 cells; format: functional
A549 [18] = assay: Potency index, ratio of etoposide IC50 to test compound IC50 for antiproliferative activity against human A549 cells; format: functional
K562 [19] = assay: Antiproliferative activity against human K562 cells incubated for 48 hrs by MTT assay; format: functional, cell-based; details: K562, 48 h
K562/Adr [20] = assay: Potency index, ratio of etoposide IC50 to test compound IC50 for antiproliferative activity against human K562/ADM cells; format: functional
HeLa [21] = assay: Antiproliferative activity against human HeLa cells incubated for 48 hrs by MTT assay; format: functional, cell-based
K562/Adr [22] = assay: Antiproliferative activity against human K562/ADM cells incubated for 48 hrs by MTT assay; format: functional, cell-based
[23] = AUCinfinity in Sprague-Dawley rat at 2.5 mg/kg, iv measured after 5 to 1440 mins by LC-MS/MS analysis; format: ADME, organism-based; parameters: route intravenous, dose 2.5 mg/kg, time upper 1440 min, time lower 5 min; details: in vivo, time 5-1440 min, dose 2.5 mg/kg
B16 = assay: Antiproliferative activity against […] cells incubated for 48 to 72 hrs by MTT assay; format: functional, cell-based; details: Mus musculus
[24] = Cytotoxicity against human KBv200 cells by MTT assay; format: functional, cell-based; details: KBv200, Uterine cervix
A549 [25] = assay: Antiproliferative activity against human A549 cells incubated for 3 days by MTT assay; format: functional, cell-based; details: A549, 72 h
[26] = Mean initial plasma concentration in Sprague-Dawley rat at 2.5 mg/kg, iv measured after 5 to 1440 mins by LC-MS/MS analysis; format: ADME, organism-based; details: Rattus norvegicus
HL-60 = assay: Antiproliferative activity against human HL-60 cells incubated for 48 hrs by MTT assay; format: functional, cell-based; details: HL-60, 48 h
HOS = assay: Cytotoxicity against human HOS cells by MTT assay; format: functional
SMMC-7721 = assay: Antiproliferative activity against human SMMC-7721 cells incubated for 48 hrs by MTT assay; format: functional, cell-based; details: SMMC-7721, 48 h
K562 [27] = assay: Cytotoxicity against human K562 cells by SRB assay; format: functional, cell-based
KB [28] = assay: Cytotoxicity against human KB cells incubated for 72 hrs by SRB method; format: functional, cell-based
MKN-45 [29] = assay: Antiproliferative activity against human MKN-45 cells incubated for 72 hrs by MTT assay; format: functional, cell-based; details: time 72 hrs
KB [30] = assay: Cytotoxicity against human Vincristine-resistant KB cells incubated for 72 hrs by SRB method; format: functional, cell-based
HeLa [31] = assay: Cytotoxicity against human HeLa cells by MTT assay; format: functional, cell-based
HCT-116 = assay: Antiproliferative activity against human HCT116 cells incubated for 3 days by MTT assay; format: functional, cell-based; details: HCT-116, 72 h
BGC-823 [32] = assay: Antiproliferative activity against human BGC-823 cells incubated for 72 hrs by MTT assay; format: functional, cell-based; details: BGC-823, 72 h
MKN-45 [33] = assay: Antiproliferative activity against human MKN-45 cells incubated for 48 to 72 hrs by MTT assay; format: functional, cell-based
K562/Adr [34] = assay: Antiproliferative activity against human K562/ADR cells incubated for 72 hrs by CCK8 assay; format: functional, cell-based
K562/A02 [35] = assay: Antiproliferative activity against human K562/A02 cells by MTT assay; format: functional, cell-based
LoVo = assay: Cytotoxicity against human LoVo cells by MTT assay; format: functional, cell-based
[36] = Plasma clearance in Sprague-Dawley rat at 2.5 mg/kg, iv measured after 5 to 1440 mins by LC-MS/MS analysis; format: ADME, organism-based; parameters: dose 2.5 mg/kg, time upper 1440 min, time lower 5 min; details: 2.5 mg/kg
HeLa [37] = assay: Antiproliferative activity against human HeLa cells by MTT assay; format: functional, cell-based
MCF7 [38] = assay: Antiproliferative activity against human MCF7 cells incubated for 48 hrs by MTT assay; format: functional, cell-based; details: MCF7, 48 h
SW480 = assay: Antiproliferative activity against human SW480 cells incubated for 48 hrs by MTT assay; format: functional, cell-based; details: SW480, 48 h
A549 [39] = assay: Antiproliferative activity against human A549 cells incubated for 48 hrs by MTT assay; format: functional, cell-based; details: A549, 48 h
KB [40] = assay: Cytotoxicity against human KB cells by MTT assay; format: functional, cell-based
K562 [41] = assay: Antiproliferative activity against human K562 cells by MTT assay; format: functional, cell-based
HepG2 [42] = assay: Antiproliferative activity against human HepG2 cells incubated for 48 to 72 hrs by MTT assay; format: functional, cell-based
NCI-H1993 = assay: Antiproliferative activity against human NCI-H1993 cells incubated for 48 to 72 hrs by MTT assay; format: functional, cell-based
MCF7 [43] = assay: Cytotoxicity against human MCF7 cells by MTT assay; format: functional, cell-based
HepG2 [44] = assay: Antiproliferative activity against human HepG2 cells incubated for 48 hrs by MTT assay; format: functional, cell-based; details: HepG2, 48 h
K562/A02 [45] = assay: Cytotoxicity against human K562/A02 cells by SRB assay; format: functional, cell-based
K562 [46] = assay: Antiproliferative activity against human K562 cells incubated for 72 hrs by CCK8 assay; format: functional, cell-based; details: K562, 72 h

COc1cc(C(=O)/C=C/c2ccc(F)cc2)ccc1OCc1cn([C@@H]2c3cc4c(cc3[C@@H](c3cc(OC)c(OC)c(OC)c3)[C@H]3C(=O)OC[C@@H]32)OCO4)nn1
IC50 (SK-OV-3 [1]): 0.53 µM | IC50 (MGC-803 [2]): 530 nM | IC50 (K562/A02 [3]): 530 nM | IC50 (BGC-823 [4]): 530 nM

COc1cc([C@@H]2c3cc4c(cc3[C@H](OC(=O)c3nn(Cc5cc(Cl)cc(Cl)c5)c5ccccc35)[C@H]3COC(=O)[C@H]23)OCO4)cc(OC)c1OC
IC50 (K562 [5]): 423 nM | IC50 (K562/Adr [6]): 560 nM | Ratio IC50 (K562/VCR [7]): 8.1 | Ratio IC50 (K562/VCR [8]): 8.1 | IC50 (K562/VCR [9]): 578 nM

COc1cc([C@@H]2c3cc4c(cc3[C@@H](n3ccnc3)[C@H]3COC(=O)[C@H]23)OCO4)cc(OC)c1OC
Ratio IC50 (BGC-823 [10]): 5.8 | Ratio IC50 (SK-OV-3 [11]): 5.8 | Ratio IC50 (K562/A02 [12]): 5.8 | Ratio IC50 (HepG2 [13]): 5.8 | Ratio IC50 (MCF7 [14]): 5.8 | Ratio IC50 (HeLa [15]): 5.8 | Ratio IC50 (K562 [16]): 5.8 | Ratio IC50 (MGC-803 [17]): 5.8 | Ratio IC50 (A549 [18]): 5.8

COc1cc([C@@H]2c3cc4c(cc3[C@@H](n3cnc([N+](=O)[O-])c3)[C@H]3COC(=O)[C@H]23)OCO4)cc(OC)c1O
IC50 (K562 [19]): 4160 nM | Ratio IC50 (K562/Adr [20]): 18.4 | IC50 (HeLa [21]): 8.12 µM | IC50 (K562/Adr [22]): 4.16 µM

COc1cc([C@@H]2c3cc4c(cc3[C@@H](O[C@@H]3O[C@@H]5CO[C@@H](C)O[C@H]5[C@H](O)[C@H]3O)[C@H]3COC(=O)[C@H]23)OCO4)cc(OC)c1O [ETOPOSIDE]
IC50 (SK-OV-3 [1]): 14.8 µM | AUC [23]: 3180 ng·h/mL | IC50 (K562 [19]): 183 nM | IC50 (B16): > 910 nM | IC50 [24]: 1710 nM | IC50 (A549 [25]): 4.9 µM | IC50 (MGC-803 [2]): 1060 nM | C0 [26]: 16.8 µM | IC50 (HL-60): 310 nM | GI50 (HOS): 36.6 µM | IC50 (SMMC-7721): 310 nM | IC50 (K562 [27]): 1980 nM | IC50 (K562 [5]): 1060 nM | IC50 (KB [28]): 1740 nM | IC50 (BGC-823 [4]): 1060 nM | Activity (MKN-45 [29]): 12.8% | IC50 (KB [30]): 2270 nM | IC50 (HeLa [31]): 1710 nM | IC50 (HCT-116): 4.9 µM | IC50 (BGC-823 [32]): 2880 nM | IC50 (MKN-45 [33]): > 910 nM | IC50 (K562/Adr [34]): 413 nM | IC50 (K562/A02 [35]): 1980 nM | IC50 (LoVo): 1710 nM | AUC [36]: 933 ng·h/mL | IC50 (HeLa [37]): 310 nM | IC50 (MCF7 [38]): 310 nM | IC50 (SW480): 764 nM | IC50 (A549 [39]): 1060 nM | IC50 (HeLa [21]): 8.12 µM | IC50 (KB [40]): 1710 nM | IC50 (K562 [41]): 22.8 µM | IC50 (HepG2 [42]): > 910 nM | IC50 (NCI-H1993): > 910 nM | IC50 (MCF7 [43]): 1710 nM | IC50 (HepG2 [44]): 310 nM | GI50 (K562/A02 [45]): 1080 nM | IC50 (K562 [46]): 3.39 µM
